# ChEMBL document CHEMBL1143001, “Designing active template molecules by combining computational de novo design and human chemist's expertise” (J Med Chem, 2007)
# Active and inactive are the calls of the source. The calls are words filed in the database; no cut-off is given here.
# Tests used:
# [1] = tested on: Protein kinase C (Rattus norvegicus); test: Inhibition of rat brain PKC at 10 uM
# [2] = target: Adrenergic receptor alpha-2 (Rattus norvegicus) (UniProt P22086+P19328+P22909); test: Displacement of radiolabeled yohimbine from adrenergic alpha-2 receptor in rat cerebral cortex; format: tissue-based
# [3] = species on record: Canis lupus familiaris; test: Inhibition of dog kidney (Na+/K+) ATPase at 10 uM
# [4] = target: Serotonin (5-HT) receptor (Rattus norvegicus) (UniProt P35563+P35365+P32305+P31388+Q9JJ16+P28564+P30994+Q62758+P08909+P14842+P30940+P35364+P19327+P28565); test: Displacement of radiolabeled serotonin from 5-HT receptor in rat cerebral cortex; format: tissue-based
# [5] = target: T1, Phenylethanolamine N-methyltransferase (Bos taurus) (UniProt P10938); test: Inhibition of bovine adrenal medulla phenylethanolamine-N-methyl transferase at 10 uM; format: tissue-based
# T1 sequence (whole entry): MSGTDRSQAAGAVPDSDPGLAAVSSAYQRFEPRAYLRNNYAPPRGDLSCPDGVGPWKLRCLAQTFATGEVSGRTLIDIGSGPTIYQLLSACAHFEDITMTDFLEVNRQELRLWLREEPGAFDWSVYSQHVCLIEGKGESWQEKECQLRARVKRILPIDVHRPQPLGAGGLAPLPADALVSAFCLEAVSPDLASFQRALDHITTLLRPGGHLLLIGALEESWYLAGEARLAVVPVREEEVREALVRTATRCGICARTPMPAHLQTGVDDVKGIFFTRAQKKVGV
# [6] = target: Adrenergic receptor alpha-1 (Rattus norvegicus) (UniProt P15823+P23944+P43140); test: Displacement of radiolabeled prazosin from adrenergic alpha1 receptor in rat cerebral cortex; format: tissue-based
# [7] = target: cGMP-specific 3',5'-cyclic phosphodiesterase (Homo sapiens) (UniProt O76074); test: Inhibition of PDE5 in human platelet cells at 10 uM; format: cell-based
# [8] = species on record: Rattus norvegicus; test: Inhibition of rat striatum tyrosine hydroxylase at 10 uM; format: tissue-based
# [9] = target: 4-aminobutyrate aminotransferase, mitochondrial (Rattus norvegicus) (UniProt P50554); test: Inhibition of rat brain GABA transaminase at 10 uM
# [10] = species on record: Bos taurus; test: Inhibition of bovine lung guanylyl cyclase at 10 uM
# [11] = target: Acetylcholinesterase (Homo sapiens) (UniProt P22303); test: Inhibition of human recombinant AChE expressed in HEK293 cells at 10 uM; format: cell-based
# [12] = species on record: Rattus norvegicus; test: Displacement of radiolabeled naloxone from opiate receptor in rat cerebral cortex; format: tissue-based
# [13] = target: Phosphodiesterase 3 (Homo sapiens) (UniProt Q14432+Q13370); test: Inhibition of PDE3 expressed in human platelets at 10 uM
# [14] = target: Phosphodiesterase 4 (Homo sapiens) (UniProt P27815+Q08499+Q07343+Q08493); test: Inhibition of PDE4 expressed in U937 cells at 10 uM; format: cell-based; details: U-937
# [15] = species on record: Rattus norvegicus; test: Inhibition of rat brain adenylyl cyclase at 10 uM
# [16] = species on record: Sus scrofa; test: Inhibition of pig liver catechol-O-methyl transferase at 10 uM
# [17] = species on record: Bos taurus; test: Inhibition of bovine PDE1 at 10 uM
# [18] = target: cGMP-dependent 3',5'-cyclic phosphodiesterase (Homo sapiens) (UniProt O00408); test: Inhibition of PDE2 expressed in differentiated U937 cells at 10 uM; format: cell-based; details: U-937
# [19] = species on record: Homo sapiens; test: Displacement of radiolabeled ligand from nicotinic acetylcholine receptor at 10 uM
# [20] = target: T2, Amine oxidase [flavin-containing] B (Homo sapiens, UniProt P27338); test: Inhibition of MAOB in human platelets at 10 uM
# T2 sequence (P27338 whole entry): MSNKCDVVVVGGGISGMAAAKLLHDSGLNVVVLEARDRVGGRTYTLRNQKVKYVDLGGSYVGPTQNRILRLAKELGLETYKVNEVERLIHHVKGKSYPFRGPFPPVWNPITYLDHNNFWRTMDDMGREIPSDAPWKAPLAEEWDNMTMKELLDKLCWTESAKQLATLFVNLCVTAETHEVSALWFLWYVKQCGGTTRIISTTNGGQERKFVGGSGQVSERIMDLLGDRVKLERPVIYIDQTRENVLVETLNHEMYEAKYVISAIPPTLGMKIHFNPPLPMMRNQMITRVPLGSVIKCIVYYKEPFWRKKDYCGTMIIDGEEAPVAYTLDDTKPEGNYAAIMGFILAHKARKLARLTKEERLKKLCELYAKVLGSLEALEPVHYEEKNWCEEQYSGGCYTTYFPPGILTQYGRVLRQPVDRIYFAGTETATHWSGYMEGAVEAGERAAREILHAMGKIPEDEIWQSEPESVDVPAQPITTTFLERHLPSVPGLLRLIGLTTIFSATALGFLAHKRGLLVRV
# [21] = target: Muscarinic acetylcholine receptor M4 (Rattus norvegicus) (UniProt P08485); test: Displacement of radiolabeled atropine from rat brain muscarinic M4 receptor at 10 uM
# [22] = target: Muscarinic acetylcholine receptor M3 (Rattus norvegicus) (UniProt P08483); test: Displacement of radiolabeled atropine from rat brain muscarinic M3 receptor at 10 uM
# [23] = target: Muscarinic acetylcholine receptor M5 (Rattus norvegicus) (UniProt P08911); test: Displacement of radiolabeled atropine from rat brain muscarinic M5 receptor at 10 uM
# [24] = target: Substance-P receptor (Homo sapiens) (UniProt P25103); test: Displacement of radiolabeled [Sar9,Met(O2)11]-SP from NK1 receptor expressed in U373MG cells at 10 uM; format: cell-based; details: U-373MG ATCC
# [25] = target: Muscarinic acetylcholine receptor M1 (Rattus norvegicus) (UniProt P08482); test: Displacement of radiolabeled atropine from rat brain muscarinic M1 receptor at 10 uM
# [26] = target: Cannabinoid receptor 1 (Homo sapiens) (UniProt P21554); test: Displacement of radiolabeled WIN-55212-2 from human CB1 receptor expressed in HEK293 cells at 10 uM; format: cell-based
# [27] = target: Sodium-dependent noradrenaline transporter (Homo sapiens) (UniProt P23975); test: Displacement of radiolabeled protriptyline from human recombinant NET expressed in CHO cells at 10 uM; format: cell-based
# [28] = target: Muscarinic acetylcholine receptor M2 (Rattus norvegicus) (UniProt P10980); test: Displacement of radiolabeled atropine from rat brain muscarinic M2 receptor at 10 uM
# [29] = species on record: Rattus norvegicus; test: Displacement of radiolabeled kainic acid from rat cerebral cortex Kainate receptor at 10 uM; format: tissue-based
# [30] = target: Sodium-dependent serotonin transporter (Homo sapiens) (UniProt P31645); test: Displacement of radiolabeled Imipramine from human recombinant 5HT transporter expressed in HEK293 cells at 10 uM; format: cell-based
# [31] = target: Sodium-dependent dopamine transporter (Homo sapiens) (UniProt Q01959); test: Displacement of radiolabeled BTCP from human recombinant DAT expressed in CHO cells at 10 uM; format: cell-based
# Acetylcholinesterase (Homo sapiens), sequence (P22303 whole entry): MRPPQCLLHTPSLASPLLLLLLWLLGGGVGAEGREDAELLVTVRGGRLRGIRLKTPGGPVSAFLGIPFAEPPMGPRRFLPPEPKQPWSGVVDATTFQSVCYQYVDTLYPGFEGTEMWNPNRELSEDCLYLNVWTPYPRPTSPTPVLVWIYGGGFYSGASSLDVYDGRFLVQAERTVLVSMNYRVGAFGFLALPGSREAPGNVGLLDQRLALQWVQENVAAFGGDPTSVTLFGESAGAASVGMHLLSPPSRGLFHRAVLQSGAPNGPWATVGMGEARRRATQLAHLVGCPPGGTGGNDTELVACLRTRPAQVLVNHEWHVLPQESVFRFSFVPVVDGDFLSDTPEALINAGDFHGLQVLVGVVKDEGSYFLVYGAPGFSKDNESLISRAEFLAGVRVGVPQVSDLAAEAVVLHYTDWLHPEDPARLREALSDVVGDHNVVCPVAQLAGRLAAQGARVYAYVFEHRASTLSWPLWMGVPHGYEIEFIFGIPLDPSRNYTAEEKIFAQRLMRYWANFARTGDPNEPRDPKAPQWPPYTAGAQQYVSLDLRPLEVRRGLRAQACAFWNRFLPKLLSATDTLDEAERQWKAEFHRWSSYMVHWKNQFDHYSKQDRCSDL
# Sodium-dependent noradrenaline transporter (Homo sapiens), sequence (P23975 whole entry): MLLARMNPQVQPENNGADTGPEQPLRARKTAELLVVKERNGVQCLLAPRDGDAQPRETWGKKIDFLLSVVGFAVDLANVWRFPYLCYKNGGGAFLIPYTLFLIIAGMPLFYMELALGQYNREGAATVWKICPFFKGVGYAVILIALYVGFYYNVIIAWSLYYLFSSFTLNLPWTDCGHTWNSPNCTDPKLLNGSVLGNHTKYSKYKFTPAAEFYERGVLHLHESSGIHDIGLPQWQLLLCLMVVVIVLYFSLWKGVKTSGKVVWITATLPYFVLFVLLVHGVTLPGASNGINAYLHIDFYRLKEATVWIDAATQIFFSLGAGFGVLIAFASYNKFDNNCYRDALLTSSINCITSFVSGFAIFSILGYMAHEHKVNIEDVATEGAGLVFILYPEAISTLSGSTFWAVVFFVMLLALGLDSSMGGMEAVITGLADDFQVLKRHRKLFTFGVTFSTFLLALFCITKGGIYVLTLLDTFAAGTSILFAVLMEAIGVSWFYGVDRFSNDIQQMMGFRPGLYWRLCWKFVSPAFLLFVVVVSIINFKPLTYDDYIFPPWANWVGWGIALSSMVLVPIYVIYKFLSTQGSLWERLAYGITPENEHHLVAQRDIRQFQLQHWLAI
# cGMP-dependent 3',5'-cyclic phosphodiesterase (Homo sapiens), sequence (O00408 whole entry): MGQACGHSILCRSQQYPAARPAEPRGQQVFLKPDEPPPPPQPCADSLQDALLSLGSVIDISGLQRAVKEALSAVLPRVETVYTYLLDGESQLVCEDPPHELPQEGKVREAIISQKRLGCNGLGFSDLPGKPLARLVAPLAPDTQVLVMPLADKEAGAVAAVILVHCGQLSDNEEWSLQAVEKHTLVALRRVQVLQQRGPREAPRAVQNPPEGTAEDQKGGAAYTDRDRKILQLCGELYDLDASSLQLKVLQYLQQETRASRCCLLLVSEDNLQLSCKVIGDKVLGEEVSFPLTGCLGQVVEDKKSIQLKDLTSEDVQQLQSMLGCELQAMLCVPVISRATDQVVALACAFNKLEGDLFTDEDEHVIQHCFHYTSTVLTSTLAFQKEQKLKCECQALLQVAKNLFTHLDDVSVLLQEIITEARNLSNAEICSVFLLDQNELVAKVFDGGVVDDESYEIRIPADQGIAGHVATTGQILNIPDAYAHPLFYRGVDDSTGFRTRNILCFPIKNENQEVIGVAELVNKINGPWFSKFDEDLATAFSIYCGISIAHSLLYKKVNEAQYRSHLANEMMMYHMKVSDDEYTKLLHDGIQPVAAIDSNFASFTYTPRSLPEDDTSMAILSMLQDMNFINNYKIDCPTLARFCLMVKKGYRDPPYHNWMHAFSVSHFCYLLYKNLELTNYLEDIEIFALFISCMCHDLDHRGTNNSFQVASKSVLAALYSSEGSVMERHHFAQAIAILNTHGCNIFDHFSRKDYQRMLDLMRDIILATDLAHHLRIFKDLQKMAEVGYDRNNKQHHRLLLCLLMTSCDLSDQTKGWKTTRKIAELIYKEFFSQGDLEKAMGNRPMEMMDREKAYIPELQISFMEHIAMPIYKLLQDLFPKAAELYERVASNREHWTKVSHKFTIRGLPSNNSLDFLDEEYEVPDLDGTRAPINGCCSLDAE
# 4-aminobutyrate aminotransferase, mitochondrial (Rattus norvegicus), sequence (P50554 28-500 limits assumed): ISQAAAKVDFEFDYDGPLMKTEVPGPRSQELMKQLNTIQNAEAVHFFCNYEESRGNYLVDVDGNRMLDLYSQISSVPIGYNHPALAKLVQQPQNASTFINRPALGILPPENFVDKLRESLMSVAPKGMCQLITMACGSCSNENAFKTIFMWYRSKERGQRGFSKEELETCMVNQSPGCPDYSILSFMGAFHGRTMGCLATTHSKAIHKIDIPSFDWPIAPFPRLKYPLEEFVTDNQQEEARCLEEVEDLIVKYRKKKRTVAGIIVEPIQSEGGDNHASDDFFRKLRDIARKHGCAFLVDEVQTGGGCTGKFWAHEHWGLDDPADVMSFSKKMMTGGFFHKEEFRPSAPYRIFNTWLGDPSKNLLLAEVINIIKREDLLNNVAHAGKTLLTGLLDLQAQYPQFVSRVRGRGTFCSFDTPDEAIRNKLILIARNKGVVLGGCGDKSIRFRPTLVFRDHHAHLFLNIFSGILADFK
# Muscarinic acetylcholine receptor M2 (Rattus norvegicus), sequence (P10980 whole entry): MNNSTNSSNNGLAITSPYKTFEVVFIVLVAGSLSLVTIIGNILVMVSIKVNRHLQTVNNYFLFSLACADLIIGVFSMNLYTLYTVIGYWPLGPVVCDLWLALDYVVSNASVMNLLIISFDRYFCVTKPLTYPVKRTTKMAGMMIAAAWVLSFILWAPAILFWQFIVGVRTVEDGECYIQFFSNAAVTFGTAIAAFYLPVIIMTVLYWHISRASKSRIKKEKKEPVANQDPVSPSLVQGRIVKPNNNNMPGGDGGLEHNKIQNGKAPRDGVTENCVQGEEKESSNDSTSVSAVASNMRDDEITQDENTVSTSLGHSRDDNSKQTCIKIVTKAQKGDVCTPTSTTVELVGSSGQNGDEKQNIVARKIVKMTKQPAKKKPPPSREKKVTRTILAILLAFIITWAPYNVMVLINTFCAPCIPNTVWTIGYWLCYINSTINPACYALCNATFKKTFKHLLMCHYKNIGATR
# Muscarinic acetylcholine receptor M3 (Rattus norvegicus), sequence (P08483 whole entry, looked up): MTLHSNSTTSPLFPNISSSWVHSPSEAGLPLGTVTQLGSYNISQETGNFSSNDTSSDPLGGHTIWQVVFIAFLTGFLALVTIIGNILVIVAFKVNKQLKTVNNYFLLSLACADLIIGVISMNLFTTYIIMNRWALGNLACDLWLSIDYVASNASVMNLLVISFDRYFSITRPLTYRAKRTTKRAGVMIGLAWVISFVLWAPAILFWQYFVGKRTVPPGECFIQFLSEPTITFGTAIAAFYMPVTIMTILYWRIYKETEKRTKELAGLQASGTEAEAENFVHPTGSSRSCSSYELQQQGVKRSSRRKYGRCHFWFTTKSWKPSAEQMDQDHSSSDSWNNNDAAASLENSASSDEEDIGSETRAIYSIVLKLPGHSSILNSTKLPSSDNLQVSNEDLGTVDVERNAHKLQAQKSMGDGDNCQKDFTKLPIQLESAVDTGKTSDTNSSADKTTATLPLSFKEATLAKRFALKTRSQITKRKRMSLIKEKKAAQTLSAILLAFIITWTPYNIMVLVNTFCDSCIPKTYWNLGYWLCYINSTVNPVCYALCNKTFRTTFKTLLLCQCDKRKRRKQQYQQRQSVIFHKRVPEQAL
# Muscarinic acetylcholine receptor M4 (Rattus norvegicus), sequence (P08485 whole entry): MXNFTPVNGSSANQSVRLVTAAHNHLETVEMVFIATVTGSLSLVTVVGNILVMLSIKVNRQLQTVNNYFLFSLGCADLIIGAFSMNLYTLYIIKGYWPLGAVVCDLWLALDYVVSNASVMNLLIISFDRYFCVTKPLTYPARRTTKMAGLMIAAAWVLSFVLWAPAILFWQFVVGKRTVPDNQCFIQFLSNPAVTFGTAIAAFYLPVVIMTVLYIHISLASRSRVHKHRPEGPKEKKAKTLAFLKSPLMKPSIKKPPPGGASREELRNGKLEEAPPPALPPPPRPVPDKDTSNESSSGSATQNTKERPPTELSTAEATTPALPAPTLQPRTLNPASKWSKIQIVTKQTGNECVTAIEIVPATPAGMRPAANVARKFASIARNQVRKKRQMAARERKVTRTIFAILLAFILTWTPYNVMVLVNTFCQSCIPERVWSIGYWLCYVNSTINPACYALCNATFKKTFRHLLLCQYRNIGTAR
# Muscarinic acetylcholine receptor M5 (Rattus norvegicus), sequence (P08911 whole entry): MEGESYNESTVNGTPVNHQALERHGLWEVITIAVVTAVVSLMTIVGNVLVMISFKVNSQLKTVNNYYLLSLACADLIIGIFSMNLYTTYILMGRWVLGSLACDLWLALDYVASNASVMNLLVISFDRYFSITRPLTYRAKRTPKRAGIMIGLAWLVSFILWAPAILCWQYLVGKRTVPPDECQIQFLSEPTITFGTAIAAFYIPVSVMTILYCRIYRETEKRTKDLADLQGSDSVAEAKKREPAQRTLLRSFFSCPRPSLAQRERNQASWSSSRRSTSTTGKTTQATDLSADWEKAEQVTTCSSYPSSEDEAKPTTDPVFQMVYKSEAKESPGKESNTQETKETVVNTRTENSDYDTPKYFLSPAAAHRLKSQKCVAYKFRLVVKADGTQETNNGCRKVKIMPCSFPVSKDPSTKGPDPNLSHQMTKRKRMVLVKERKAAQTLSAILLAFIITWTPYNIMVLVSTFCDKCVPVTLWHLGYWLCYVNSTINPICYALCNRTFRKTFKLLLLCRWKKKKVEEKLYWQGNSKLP
Compound,Activity [1],Activity [3],Activity [5],Activity [7],Activity [8],Activity [9],Activity [10],Activity [11],Activity [13],Activity [14],Activity [15],Activity [16],Activity [17],Activity [18],Activity [20],also measured
OCc1ccccc1C1CCCNC1 (centres undefined),inactive,inactive,inactive,inactive,inactive,inactive,inactive,inactive,inactive,inactive,inactive,inactive,inactive,inactive,Not Active,inhibition ([2]; concentration not given here): 62%; inhibition ([4]; concentration not given here): 39%; inhibition ([6]; concentration not given here): 47%; inhibition ([12]; concentration not given here): 35%; inhibition [19]: 45%
O=C(O)c1ccccc1C1CCCNC1 (centres undefined),inactive,inactive,inactive,inactive,inactive,inactive,inactive,inactive,inactive,inactive,inactive,inactive,inactive,inactive,Not Active,Activity [21]: inactive; Activity [22]: inactive; Activity [2]: inactive; Activity [23]: inactive; Activity [24]: inactive; Activity [25]: inactive; Activity [4]: inactive; Activity [6]: inactive; Activity [26]: inactive; Activity [27]: inactive; Activity [12]: inactive; Activity [28]: inactive; Activity [29]: inactive; Activity [19]: inactive; Activity [30]: inactive; Activity [31]: inactive
O=C(O)CCC(=O)Nc1ccc(-c2ccoc2)cc1,inactive,inactive,inactive,inactive,inactive,inactive,inactive,inactive,inactive,inactive,inactive,inactive,inactive,inactive,Not Active,
NCc1cccc(CC2CCCNC2=O)c1 (centres undefined),inactive,inactive,inactive,inactive,inactive,inactive,inactive,inactive,inactive,inactive,inactive,inactive,inactive,inactive,Not Active,inhibition [21]: 50%; inhibition [22]: 50%; inhibition [23]: 50%; inhibition [25]: 50%; inhibition [28]: 50%
N#Cc1cccc(CN2CCCCC2=O)c1,inactive,inactive,inactive,inactive,inactive,inactive,inactive,inactive,inactive,inactive,inactive,inactive,inactive,inactive,Not Active,
N#Cc1cccc(CC2CCCNC2=O)c1 (centres undefined),inactive,inactive,inactive,inactive,inactive,inactive,inactive,inactive,inactive,inactive,inactive,inactive,inactive,inactive,Not Active,
Nc1cccc(-c2ccoc2)c1,inactive,inactive,inactive,inactive,inactive,inactive,inactive,inactive,inactive,inactive,inactive,inactive,inactive,inactive,Not Active,inhibition [27]: 80%; inhibition [19]: 42%
Nc1ccc(-c2ccoc2)cc1,inactive,inactive,inactive,inactive,inactive,inactive,inactive,inactive,inactive,inactive,inactive,inactive,inactive,inactive,Not Active,inhibition [27]: 77%
